Assay results reported in ChEMBL document CHEMBL1130299, “Time-dependent inhibition of neuronal nitric oxide synthase by N-propargylguanidine” (Bioorg Med Chem Lett, 1997).

Tested on: Nitric oxide synthase 1 (Bos taurus)
Assay: Inactivation constant for Neuronal nitric oxide synthase (nNOS) from bovine brain

**Q.** For `C#CCNC(=N)N`, which K inact is on record?
**A.** The K inact was 0.39 min⁻¹.
